Reference: ChEMBL document CHEMBL1201862, “PubChem BioAssay data set” (2004)
Calls of active or inactive are those of the source.

Assays:
[1] = THP-1 cell cytotoxicity, dose response, cytotoxicity control for non-replicating M. tuberculosis project (AID 489025); assay type: functional
[2] = HepG2 cell cytotoxicity, dose response, cytotoxicity control for non-replicating M. tuberculosis project (AID 489018); assay type: functional; details: Mycobacterium tuberculosis
[3] = Vero E6 cell cytotoxicity, dose response, cytotoxicity control for non-replicating M. tuberculosis project, secondary assay (AID 492998); assay type: functional, VeroE6; details: Vero C1008
[4] = tested on: Vero; experiment: cells; assay type: functional; details: Chlorocebus sabaeus
[5] = target: T1, Cytochrome P450 2D6 (Homo sapiens, UniProt P10635);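 note: CYP2D6 member of a cytochrome P450 panel assay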
T1 sequence (P10635 whole entry): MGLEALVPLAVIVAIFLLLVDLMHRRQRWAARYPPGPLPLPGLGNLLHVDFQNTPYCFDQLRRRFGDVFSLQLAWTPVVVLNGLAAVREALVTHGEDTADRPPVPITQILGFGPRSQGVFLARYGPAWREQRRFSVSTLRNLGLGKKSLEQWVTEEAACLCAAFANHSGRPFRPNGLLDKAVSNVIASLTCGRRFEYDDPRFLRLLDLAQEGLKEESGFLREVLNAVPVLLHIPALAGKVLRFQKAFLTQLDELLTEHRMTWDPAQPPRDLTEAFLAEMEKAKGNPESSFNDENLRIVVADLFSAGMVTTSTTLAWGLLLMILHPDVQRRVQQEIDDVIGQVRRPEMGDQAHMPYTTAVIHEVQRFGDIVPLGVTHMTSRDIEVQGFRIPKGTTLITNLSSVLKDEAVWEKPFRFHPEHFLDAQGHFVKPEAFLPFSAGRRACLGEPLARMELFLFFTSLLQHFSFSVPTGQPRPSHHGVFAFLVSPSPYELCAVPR

[6] = insulin promoter down-regulators in MIN6 cells, imaging, high-content screening, mouse beta cells (AID 1628); assay type: functional
[7] = cytotoxicity in MIN6 insulinoma cells, dose response, cytotoxicity control, cell-based, mouse insulinoma (AID 2122); assay type: functional;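 note: confirmatory high-throughput counterscreen run to flag cytotoxic compounds; mouse MIN-6 beta cells carrying an insulin promoter eGFP reporter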
[8] = target: Large T antigen (Simian virus 40, UniProt P03070); assay type: functional, Betapolyomavirus macacae;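 note: Confirmatory-stage PubChem screen for compounds that inhibit SV40 T antigen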
Sequence of Large T antigen (P03070 whole entry): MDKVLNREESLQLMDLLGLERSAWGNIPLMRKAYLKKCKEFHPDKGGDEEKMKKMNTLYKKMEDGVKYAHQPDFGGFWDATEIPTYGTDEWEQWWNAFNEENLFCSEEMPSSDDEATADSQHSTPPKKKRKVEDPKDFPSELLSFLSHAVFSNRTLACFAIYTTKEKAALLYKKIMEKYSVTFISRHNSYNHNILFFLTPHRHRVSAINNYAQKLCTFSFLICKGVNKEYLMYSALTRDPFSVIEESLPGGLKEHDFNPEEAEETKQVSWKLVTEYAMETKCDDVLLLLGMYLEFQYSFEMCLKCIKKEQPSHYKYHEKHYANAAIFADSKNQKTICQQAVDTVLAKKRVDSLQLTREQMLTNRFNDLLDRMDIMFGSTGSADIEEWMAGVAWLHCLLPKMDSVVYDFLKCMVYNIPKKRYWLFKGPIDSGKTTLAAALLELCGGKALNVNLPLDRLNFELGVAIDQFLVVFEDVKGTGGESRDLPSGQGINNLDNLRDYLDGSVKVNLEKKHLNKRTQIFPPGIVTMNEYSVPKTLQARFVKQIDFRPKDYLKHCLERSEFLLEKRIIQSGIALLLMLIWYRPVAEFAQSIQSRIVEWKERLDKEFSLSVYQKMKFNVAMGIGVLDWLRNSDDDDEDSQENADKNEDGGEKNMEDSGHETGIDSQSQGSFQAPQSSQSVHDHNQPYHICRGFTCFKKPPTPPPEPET

[9] = target: DNA dC->dU-editing enzyme APOBEC-3A (Homo sapiens, UniProt P31941); experiment: Dose Response confirmation of small molecule APOBEC3A DNA Deaminase Inhibitors via a fluorescence-based single-stranded DNA deaminase assay. [Related pubchem assays (depositor defined):AID493011, AID493024]; assay type: functional
Sequence of DNA dC->dU-editing enzyme APOBEC-3A (P31941 whole entry): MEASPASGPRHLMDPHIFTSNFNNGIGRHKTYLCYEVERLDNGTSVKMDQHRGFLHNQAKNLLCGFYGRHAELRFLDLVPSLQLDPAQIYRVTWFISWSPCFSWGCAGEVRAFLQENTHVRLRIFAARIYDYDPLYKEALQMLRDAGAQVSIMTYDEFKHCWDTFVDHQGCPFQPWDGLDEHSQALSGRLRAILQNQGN

[10] = target: DNA dC->dU-editing enzyme APOBEC-3G (Homo sapiens, UniProt Q9HC16); assay type: functional;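 note: Dose-response counterscreen measuring inhibition of APOBEC3G DNA deaminase activity, run while confirming APOBEC3A inhibitors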
Sequence of DNA dC->dU-editing enzyme APOBEC-3G (Q9HC16 whole entry): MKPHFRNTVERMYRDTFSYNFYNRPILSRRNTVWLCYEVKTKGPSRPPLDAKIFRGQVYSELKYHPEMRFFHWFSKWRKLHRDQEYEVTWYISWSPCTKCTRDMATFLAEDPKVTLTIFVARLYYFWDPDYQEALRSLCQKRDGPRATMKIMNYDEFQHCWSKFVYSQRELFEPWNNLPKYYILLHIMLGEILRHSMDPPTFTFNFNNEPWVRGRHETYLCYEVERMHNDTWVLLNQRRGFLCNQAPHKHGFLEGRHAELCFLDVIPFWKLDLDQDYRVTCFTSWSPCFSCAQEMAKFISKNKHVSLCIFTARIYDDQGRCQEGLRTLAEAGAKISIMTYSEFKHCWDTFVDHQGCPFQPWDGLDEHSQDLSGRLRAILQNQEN

[11] = tested on: Streptococcus sp. 'group A'; experiment: growth inhibition of control SK(-) GAS strain, dose response, counter-screen for streptokinase expression inhibitor project, luminescence, kanamycin, BacTiterGlo, confirmation (AID 1900); assay type: functional, organism-based
[12] = target: T2, Streptokinase A (Streptococcus pyogenes serotype M1, UniProt P10520); experiment: S. pyogenes streptokinase expression inhibitors, potency, dose response, plasminogen activation absorbance, OD405 (AID 1914); assay type: functional, Streptococcus pyogenes M1 GAS;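 note: secreted streptokinase activity via plasminogen activation per viability signal from cell pellet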
T2 sequence (P10520 whole entry): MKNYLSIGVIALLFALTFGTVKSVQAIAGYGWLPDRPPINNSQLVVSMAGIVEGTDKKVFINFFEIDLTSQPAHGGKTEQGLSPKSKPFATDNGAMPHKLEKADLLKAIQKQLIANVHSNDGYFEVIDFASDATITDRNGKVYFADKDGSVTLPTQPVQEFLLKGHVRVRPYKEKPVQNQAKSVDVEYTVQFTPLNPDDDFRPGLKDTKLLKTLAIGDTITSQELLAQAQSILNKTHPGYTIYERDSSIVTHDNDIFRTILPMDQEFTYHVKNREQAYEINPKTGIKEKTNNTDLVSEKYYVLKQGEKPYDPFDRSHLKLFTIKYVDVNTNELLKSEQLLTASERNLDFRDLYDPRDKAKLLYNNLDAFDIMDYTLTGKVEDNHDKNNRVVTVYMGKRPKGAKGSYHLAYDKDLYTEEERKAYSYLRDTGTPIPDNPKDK

[13] = tested on: Streptococcus; experiment: Group A Streptococcus viability loss, dose response, counter-screen for streptokinase expression inhibitor project, luminescence, BacTiterGlo (AID 1915); assay type: functional, organism-based;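 note: potency for reduction of bacterial viability or growth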
[14] = target: G-protein coupled receptor 55 (Homo sapiens, UniProt Q9Y2T6); experiment: GPR55 agonists via beta-arrestin recruitment, primary screen, imaging, U2OS cells, beta-arrestin-GFP redistribution (AID 1961); assay type: functional
Sequence of G-protein coupled receptor 55 (Q9Y2T6 whole entry): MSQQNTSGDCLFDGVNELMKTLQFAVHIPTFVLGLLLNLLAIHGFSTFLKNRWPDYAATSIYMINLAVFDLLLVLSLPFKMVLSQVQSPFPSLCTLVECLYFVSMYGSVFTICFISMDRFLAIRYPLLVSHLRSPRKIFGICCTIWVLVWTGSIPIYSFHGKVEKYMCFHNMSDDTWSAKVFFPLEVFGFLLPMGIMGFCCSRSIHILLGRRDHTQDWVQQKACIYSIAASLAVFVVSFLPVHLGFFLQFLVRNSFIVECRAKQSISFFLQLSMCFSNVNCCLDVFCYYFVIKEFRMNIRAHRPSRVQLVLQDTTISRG

[15] = target: T3, Replicative DNA helicase DnaB (Mycobacterium tuberculosis, UniProt P9WMR3); experiment: DnaB intein splicing inhibitors, dose response, biochemical, cell-free fluorescence (AID 449749); assay type: functional
T3 sequence (P9WMR3 whole entry): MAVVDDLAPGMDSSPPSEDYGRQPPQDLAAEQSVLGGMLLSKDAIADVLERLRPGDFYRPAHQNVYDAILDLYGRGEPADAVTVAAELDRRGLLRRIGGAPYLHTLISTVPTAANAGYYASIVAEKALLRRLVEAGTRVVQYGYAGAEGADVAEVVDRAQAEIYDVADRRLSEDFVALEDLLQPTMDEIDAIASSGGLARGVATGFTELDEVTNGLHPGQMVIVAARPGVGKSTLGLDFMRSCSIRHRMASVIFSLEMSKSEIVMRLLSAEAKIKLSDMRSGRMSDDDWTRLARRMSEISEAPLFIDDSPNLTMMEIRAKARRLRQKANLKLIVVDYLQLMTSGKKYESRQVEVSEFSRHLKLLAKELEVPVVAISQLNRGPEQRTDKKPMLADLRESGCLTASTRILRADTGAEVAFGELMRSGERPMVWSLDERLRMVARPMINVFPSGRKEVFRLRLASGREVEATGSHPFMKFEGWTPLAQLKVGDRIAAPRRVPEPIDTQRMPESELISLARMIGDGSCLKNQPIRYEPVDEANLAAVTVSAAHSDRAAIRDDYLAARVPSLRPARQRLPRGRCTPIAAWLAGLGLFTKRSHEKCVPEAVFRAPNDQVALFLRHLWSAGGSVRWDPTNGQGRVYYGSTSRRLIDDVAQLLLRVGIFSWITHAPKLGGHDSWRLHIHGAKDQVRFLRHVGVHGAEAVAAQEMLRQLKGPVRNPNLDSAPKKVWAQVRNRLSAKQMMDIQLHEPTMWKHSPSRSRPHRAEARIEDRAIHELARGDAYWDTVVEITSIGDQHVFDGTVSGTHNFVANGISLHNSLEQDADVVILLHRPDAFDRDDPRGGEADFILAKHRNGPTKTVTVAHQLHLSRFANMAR

[16] = target: T4, Protein RecA (Mycobacterium tuberculosis, UniProt P9WHJ3); experiment: Fluorescence Cell-Free Homogeneous Dose Retest to Identify Inhibitors of RecA-Intein Splicing Activity. [Related pubchem assays (depositor defined):AID2097, AID2223, AID489010, AID492950]; assay type: functional
T4 sequence (P9WHJ3 whole entry): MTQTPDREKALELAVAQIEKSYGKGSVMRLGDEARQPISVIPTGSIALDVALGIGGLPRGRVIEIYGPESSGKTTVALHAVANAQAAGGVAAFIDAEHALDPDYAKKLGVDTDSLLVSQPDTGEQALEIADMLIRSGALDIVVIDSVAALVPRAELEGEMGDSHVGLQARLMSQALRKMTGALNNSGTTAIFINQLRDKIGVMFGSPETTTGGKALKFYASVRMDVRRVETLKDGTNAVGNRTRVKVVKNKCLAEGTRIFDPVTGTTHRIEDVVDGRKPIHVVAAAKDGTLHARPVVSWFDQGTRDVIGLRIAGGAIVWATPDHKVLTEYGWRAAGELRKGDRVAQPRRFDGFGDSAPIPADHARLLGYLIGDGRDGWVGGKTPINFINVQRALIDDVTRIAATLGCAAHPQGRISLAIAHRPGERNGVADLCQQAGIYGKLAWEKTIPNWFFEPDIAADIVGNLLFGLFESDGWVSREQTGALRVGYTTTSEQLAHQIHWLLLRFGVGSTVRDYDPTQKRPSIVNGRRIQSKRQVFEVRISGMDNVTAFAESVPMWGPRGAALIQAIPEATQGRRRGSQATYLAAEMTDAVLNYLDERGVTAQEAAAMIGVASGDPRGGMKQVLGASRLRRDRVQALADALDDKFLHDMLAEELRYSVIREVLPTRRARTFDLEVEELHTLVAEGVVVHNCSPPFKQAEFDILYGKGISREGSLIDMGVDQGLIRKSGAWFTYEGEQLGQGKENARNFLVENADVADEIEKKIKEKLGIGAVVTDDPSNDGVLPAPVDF

[17] = growth suppression of PTEN-null colon cells, dose response, cell-based, HCT116 PTEN knockout (AID 1047); assay type: functional;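 note: HCT116 colon tumor cells with PTEN knocked out; cells exposed to compound for 60 hours before readout; potency for loss of cell viability measured by luminescence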
[18] = growth suppression of beta-catenin-knockout colon cells, dose response, cell-based, HCT116, human colon tumor (AID 1045); assay type: functional;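 note: HCT116 colon tumor cells with beta catenin knocked out; cells exposed to compound for 60 hours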
[19] = inhibitors of intracellular T. cruzi replication, confirmation, NIH3T3 host cells, beta-gal luminescence (AID 2044); assay type: functional, cell-based;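 note: intracellular parasites grown in NIH/3T3 mouse fibroblasts as host cells; luminescent beta-galactosidase reporter signal from transgenic T. cruzi replicating inside host cells; inhibitors lower the luminescence signal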
[20] = cytotoxicity toward NIH3T3 fibroblasts, dose response, counter-screen, cell-based, ATP luminescence, mouse fibroblasts (AID 2010); assay type: functional;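 note: cells exposed to compound for about 90 hours before reading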
[21] = target: Cytochrome P450 2C19 (Homo sapiens, UniProt P33261); experiment: Cytochrome panel assay with activity outcomes. Panel member name: p450-cyp2c19 Compounds with AC50 equal or less than 10 uM are considered active; assay type: functional
Sequence of Cytochrome P450 2C19 (P33261 whole entry): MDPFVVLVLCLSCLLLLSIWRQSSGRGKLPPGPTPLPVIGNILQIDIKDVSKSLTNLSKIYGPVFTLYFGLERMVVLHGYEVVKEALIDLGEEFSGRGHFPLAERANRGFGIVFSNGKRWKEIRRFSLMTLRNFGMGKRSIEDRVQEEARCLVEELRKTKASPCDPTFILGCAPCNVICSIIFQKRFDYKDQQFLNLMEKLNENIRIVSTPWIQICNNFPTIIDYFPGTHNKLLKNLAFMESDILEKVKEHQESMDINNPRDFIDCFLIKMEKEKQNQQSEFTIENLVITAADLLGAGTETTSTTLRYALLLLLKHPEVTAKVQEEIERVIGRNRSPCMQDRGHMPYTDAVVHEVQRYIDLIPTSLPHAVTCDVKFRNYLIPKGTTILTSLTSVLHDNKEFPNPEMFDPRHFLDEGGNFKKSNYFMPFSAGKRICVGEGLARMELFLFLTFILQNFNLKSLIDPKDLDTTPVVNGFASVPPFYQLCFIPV

[22] = target: T1, Cytochrome P450 2D6; remark: listed apart in the source
[23] = target: Cytochrome P450 2C9 (Homo sapiens, UniProt P11712)
Sequence of Cytochrome P450 2C9 (P11712 whole entry): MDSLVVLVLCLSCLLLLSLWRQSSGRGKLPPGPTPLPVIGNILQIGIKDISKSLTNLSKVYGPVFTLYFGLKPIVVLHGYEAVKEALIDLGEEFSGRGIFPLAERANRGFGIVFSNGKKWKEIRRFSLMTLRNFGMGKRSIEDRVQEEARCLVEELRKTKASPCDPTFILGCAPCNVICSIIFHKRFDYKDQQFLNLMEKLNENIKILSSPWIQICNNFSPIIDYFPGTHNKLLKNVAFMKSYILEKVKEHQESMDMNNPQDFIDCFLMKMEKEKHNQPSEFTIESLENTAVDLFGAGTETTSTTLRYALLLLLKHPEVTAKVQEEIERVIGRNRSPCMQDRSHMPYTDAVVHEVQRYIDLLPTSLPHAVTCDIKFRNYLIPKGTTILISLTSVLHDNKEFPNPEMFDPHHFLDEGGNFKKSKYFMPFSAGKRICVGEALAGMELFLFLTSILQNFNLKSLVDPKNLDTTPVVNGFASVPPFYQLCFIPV

[24] = target: T5, Sentrin-specific protease 1 (Homo sapiens, UniProt Q9P0U3); experiment: potency of human SENP1 inhibitors, dose response, biochemical, kinetic FRET (AID 651697); assay type: functional; details: read-out: IC50_Mean
T5 sequence (Q9P0U3 whole entry): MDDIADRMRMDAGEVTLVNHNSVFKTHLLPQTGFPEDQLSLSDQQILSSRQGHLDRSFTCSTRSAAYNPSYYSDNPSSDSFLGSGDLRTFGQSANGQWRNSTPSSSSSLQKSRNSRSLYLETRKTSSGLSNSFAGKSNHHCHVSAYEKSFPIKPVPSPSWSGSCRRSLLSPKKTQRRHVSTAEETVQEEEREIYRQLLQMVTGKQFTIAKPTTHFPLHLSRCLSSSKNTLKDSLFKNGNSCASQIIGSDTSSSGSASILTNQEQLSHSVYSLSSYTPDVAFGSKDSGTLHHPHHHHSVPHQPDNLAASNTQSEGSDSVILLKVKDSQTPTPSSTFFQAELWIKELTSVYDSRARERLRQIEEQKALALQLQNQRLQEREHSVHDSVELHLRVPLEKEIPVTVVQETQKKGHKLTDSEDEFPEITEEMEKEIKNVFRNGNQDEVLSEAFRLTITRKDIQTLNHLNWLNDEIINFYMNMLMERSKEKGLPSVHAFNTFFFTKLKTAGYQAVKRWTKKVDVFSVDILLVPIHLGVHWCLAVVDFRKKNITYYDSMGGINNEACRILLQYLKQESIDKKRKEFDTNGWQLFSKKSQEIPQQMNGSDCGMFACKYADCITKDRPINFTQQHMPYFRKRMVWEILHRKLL

[25] = target: T5, Sentrin-specific protease 1; experiment: Dose response confirmation of small molecule inhibitors of the catalytic domain of the SUMO protease, SENP1 in a FRET assay.; assay type: functional; details: read-out: IC50_Mean
[26] = target: T6, Rac GTPase-activating protein 1 (Homo sapiens, UniProt Q9H0H5); experiment: MgcRacGAP GTPase-activating activity inhibitors, confirmation, biochemical, ADP Hunter fluorescence, primary and confirmatory (AID 624330); assay type: functional
T6 sequence (Q9H0H5 whole entry): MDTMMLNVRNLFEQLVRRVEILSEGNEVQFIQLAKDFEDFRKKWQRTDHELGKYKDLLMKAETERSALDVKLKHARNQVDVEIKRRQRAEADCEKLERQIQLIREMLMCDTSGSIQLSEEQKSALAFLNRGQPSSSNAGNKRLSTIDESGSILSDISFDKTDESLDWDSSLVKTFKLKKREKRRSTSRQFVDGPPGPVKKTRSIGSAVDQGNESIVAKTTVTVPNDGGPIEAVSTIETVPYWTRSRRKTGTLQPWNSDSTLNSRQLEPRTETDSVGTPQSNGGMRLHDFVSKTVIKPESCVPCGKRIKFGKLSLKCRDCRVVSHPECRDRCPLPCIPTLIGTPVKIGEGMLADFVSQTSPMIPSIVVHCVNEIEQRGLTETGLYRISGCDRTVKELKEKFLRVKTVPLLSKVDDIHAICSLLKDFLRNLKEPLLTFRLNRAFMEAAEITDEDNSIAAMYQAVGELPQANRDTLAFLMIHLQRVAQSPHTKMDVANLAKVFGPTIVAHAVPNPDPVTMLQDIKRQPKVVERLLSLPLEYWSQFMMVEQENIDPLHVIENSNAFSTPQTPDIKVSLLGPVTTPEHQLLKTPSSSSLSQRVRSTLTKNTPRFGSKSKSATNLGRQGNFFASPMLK

CC/C(=C\c1oc2cc3ccccc3cc2[n+]1CC)Nc1ccccc1
CC50 [1]: 16 µM (active) | CC50 [2]: > 20 µM (active) | CC50 [3]: > 20 µM (active) | CC50 [4]: 18.7 µM (active)

Cc1ccc(NC(=O)CSc2nnc(-c3ccncc3)o2)cc1
AC50 [5]: inconclusive

C=CCC(C#Cc1ccccc1)[N+](C)(C)CC=C (stereo unspecified)
IC50 [6]: 8.7 µM (active) | IC50 [7]: 10.7 µM (inactive)

COc1ccc(NCN2C(=O)C3C4C=CC(C4)C3C2=O)cc1 (stereo unspecified)
IC50 [8]: 23.2 µM (active)

CCN1C(NCc2ccc(OC)cc2)=N[C@@H](c2ccccc2)C(C(=O)OC)=C1C
IC50 [9]: 4.07 µM (active) | IC50 [10]: 5.66 µM (active)

CC1C(=O)C(C)C(c2cc(Cl)ccc2O)NC1c1cc(Cl)ccc1O (stereo unspecified)
EC50 [11]: 1.4 µM (active) | EC50 [12]: > 150 µM (not active) | EC50 [13]: 11.5 µM (active) | EC50 [14]: > 32 µM (inactive) | AC50 [15]: 4.77 µM (active) | EC50 [16]: 8.24 µM (active)

CCC(C)NCC(=O)Nc1ccc(-c2nc3cc(NC(=O)CNC(C)CC)ccc3o2)cc1 (stereo unspecified)
IC50 [6]: 2.17 µM (active) | IC50 [7]: 1.66 µM (active) | EC50 [17]: 4.19 µM (active) | EC50 [18]: 2.98 µM (active)

CCC(C)C(=O)Nc1nc(C)c(-c2csc(Nc3ccc(Cl)cc3)n2)s1 (stereo unspecified)
IC50 [6]: 2.48 µM (active) | IC50 [7]: 3.05 µM (active) | EC50 [19]: 1.75 µM (active) | EC50 [20]: > 60 µM (not active)

CCn1c(C)nc2cc(S(=O)(=O)Nc3ccc(C)cc3)ccc21
IC50 [9]: 4.42 µM (active) | IC50 [10]: 4.4 µM (active)

C[N+](C)(C)CCN(Cc1ccc(Cl)cc1)c1ccccn1.[I-]
IC50 [9]: 2.05 µM (active) | IC50 [10]: 2.01 µM (active) | AC50 [21]: inconclusive | AC50 [22]: 0.251 µM (inconclusive) | AC50 [23]: inconclusive

CCOc1cc(/C=C2\N=C3CCCCCN3C2=O)ccc1O
IC50 [8]: 16.9 µM (active) | IC50 [24]: 9.57 µM (active) | IC50 [25]: 7.67 µM (active) | IC50 [26]: 39.9 µM (active)

CC(=O)Nc1ccc(S(=O)(=O)Nc2nc3ccccc3nc2Nc2ccc(O)cc2)cc1
IC50 [8]: 9.57 µM (active)
